Laboratory results from ChEMBL document CHEMBL5608163, “Structure modification of anoplin for fighting resistant bacteria” (Eur J Med Chem, 2024).
Converted amounts (≈) assume the structure as drawn. Square brackets hold non-standard residues; d marks the D form. Peptide text beside a SMILES is read from it. βAla = NCCC(=O)O

Columns and labels:
Klebsiella pneumoniae [1] = experiment: Antimicrobial activity against Klebsiella pneumoniae assessed as reduction in bacterial growth incubated for 18 to 20 hrs by Mueller-Hinton broth based microdilution method; type: functional; details: time 18-20 hrs
Erythrocyte [2] = experiment: Hemolytic activity in mouse Red blood cells incubated for 1 hr by microplate reader assay; type: toxicity, cell-based; details: erythrocyte, 1 h
Pseudomonas aeruginosa [3] = experiment: Antibacterial activity against Pseudomonas aeruginosa ATCC 27853 assessed as reduction in bacterial growth incubated for 18 to 20 hrs by Mueller Hinton broth dilution method; type: functional; details: time 18-20 hrs
Escherichia coli [4] = experiment: Antibacterial activity against Escherichia coli ATCC 25922 assessed as reduction in bacterial growth incubated for 18 to 20 hrs by Mueller Hinton broth dilution method; type: functional; details: time 18-20 hrs
Staphylococcus aureus [5] = experiment: Antibacterial activity against Staphylococcus aureus ATCC 25923 assessed as reduction in bacterial growth incubated for 18 to 20 hrs by Mueller Hinton broth dilution method; type: functional; details: time 18-20 hrs
Bacillus subtilis = experiment: Antibacterial activity against Bacillus subtilis ATCC 23857 assessed as reduction in bacterial growth incubated for 18 to 20 hrs by Mueller Hinton broth dilution method; type: functional; details: time 18-20 hrs
Escherichia coli [6] = experiment: Antibacterial activity against Escherichia coli ATCC 25922 assessed as reduction in bacterial growth by broth microdilution method; type: functional
[7] = Hemolytic activity in human RBC; type: toxicity, cell-based, Erythrocyte; details: red blood cells
Staphylococcus aureus [8] = experiment: Antibacterial activity against Staphylococcus aureus ATCC 25923 assessed as reduction in bacterial growth incubated for 18 to 24 hrs by broth microdilution method; type: functional; details: time 18-24 hrs
Acinetobacter baumannii = experiment: Antibacterial activity against Acinetobacter baumannii ATCC 19606 assessed as inhibition in bacterial growth incubated for 20 to 24 hrs by CLSI based broth microdilution method; type: functional; details: time 20-24 hrs
Pseudomonas aeruginosa [9] = experiment: Antibacterial activity against Pseudomonas aeruginosa ATCC 27853 assessed as reduction in bacterial cell growth incubated for 18 hrs by two fold serial microdilution method; type: functional
Escherichia coli [10] = experiment: Antibacterial activity against Escherichia coli ATCC 25922 assessed as reduction in bacterial cell growth incubated for 18 hrs by two fold serial microdilution method; type: functional
Klebsiella pneumoniae [11] = experiment: Antibacterial activity against Klebsiella pneumoniae ATCC 700603 assessed as reduction in bacterial cell growth incubated for 18 hrs by two fold serial microdilution method; type: functional
Erythrocyte [12] = experiment: Hemolytic activity in mouse Red blood cells incubated for 1 hr; type: toxicity, cell-based
[13] = test system: Staphylococcus epidermidis; experiment: Antibacterial activity against Staphylococcus epidermidis ATCC 12228 assessed as reduction in bacterial cell growth incubated for 18 hrs by two fold serial microdilution method; type: functional
Staphylococcus aureus [14] = experiment: Antibacterial activity against Staphylococcus aureus ATCC 25923 assessed as reduction in bacterial cell growth incubated for 18 hrs by two fold serial microdilution method; type: functional

Row | Structure (SMILES) | MIC (Klebsiella pneumoniae [1]) [µM] | HC10 (Erythrocyte [2]) [µM] | MIC (Pseudomonas aeruginosa [3]) [µM] | MIC (Escherichia coli [4]) [µM] | MIC (Staphylococcus aureus [5]) [µM] | MIC (Bacillus subtilis) [µM] | other results
1 | CC[C@H](C)[C@H](NC(=O)[C@H](CCCNC(=N)N)NC(=O)[C@@H](CCCCN)NC(=O)[C@H](CC(C)C)NC(=O)[C@H](CC(C)C)NC(=O)CN)C(=O)N[C@H](CCCCN)C(=O)N[C@H](C(=O)N[C@@H](CC(C)C)C(=O)N[C@@H](CC(C)C)C(N)=O)[C@@H](C)O | 256 (≈ 295 µg/mL) | > 300 | 64 (≈ 73.8 µg/mL) | 256 (≈ 295 µg/mL) | > 256 | 64 (≈ 73.8 µg/mL) | 
2 | CC[C@H](C)[C@H](NC(=O)[C@H](CCCNC(=N)N)NC(=O)[C@H](CCCCN)NC(=O)[C@H](CC(C)C)NC(=O)[C@@H](CC(C)C)NC(=O)CN)C(=O)N[C@@H](CCCCN)C(=O)N[C@H](C(=O)N[C@@H](CC(C)C)C(=O)N[C@H](CC(C)C)C(N)=O)[C@@H](C)O | > 256 | > 300 | 64 (≈ 73.8 µg/mL) | 128 (≈ 148 µg/mL) | > 256 | 64 (≈ 73.8 µg/mL) | 
3 | CC[C@H](C)[C@H](NC(=O)[C@@H](CCCNC(=N)N)NC(=O)[C@H](CCCCN)NC(=O)[C@H](CC(C)C)NC(=O)[C@H](CC(C)C)NC(=O)CN)C(=O)N[C@@H](CCCCN)C(=O)N[C@@H](C(=O)N[C@@H](CC(C)C)C(=O)N[C@@H](CC(C)C)C(N)=O)[C@H](C)O | > 256 | > 300 | 128 (≈ 148 µg/mL) | 256 (≈ 295 µg/mL) | > 256 | 32 (≈ 36.9 µg/mL) | 
4 | CC[C@H](C)[C@H](NC(=O)[C@H](CCCNC(=N)N)NC(=O)[C@H](CCCCN)NC(=O)[C@@H](CC(C)C)NC(=O)[C@H](CC(C)C)NC(=O)CN)C(=O)N[C@@H](CCCCN)C(=O)N[C@H](C(=O)N[C@H](CC(C)C)C(=O)N[C@@H](CC(C)C)C(N)=O)[C@@H](C)O | 256 (≈ 295 µg/mL) | > 300 | 8 (≈ 9.23 µg/mL) | 32 (≈ 36.9 µg/mL) | > 256 | 16 (≈ 18.5 µg/mL) | 
5 | CC[C@H](C)[C@H](NC(=O)[C@H](CCCNC(=N)N)NC(=O)[C@@H](CCCCN)NC(=O)[C@H](CC(C)C)NC(=O)[C@H](CC(C)C)NC(=O)CN)C(=O)N[C@@H](CCCCN)C(=O)N[C@@H](C(=O)N[C@@H](CC(C)C)C(=O)N[C@@H](CC(C)C)C(N)=O)[C@H](C)O | > 256 |  | 128 (≈ 148 µg/mL) | 256 (≈ 295 µg/mL) | > 256 | 32 (≈ 36.9 µg/mL) | 
6 | CC[C@H](C)[C@H](NC(=O)[C@H](CCCNC(=N)N)NC(=O)[C@H](CCCCN)NC(=O)[C@H](CC(C)C)NC(=O)[C@H](CC(C)C)NC(=O)CN)C(=O)N[C@H](CCCCN)C(=O)N[C@@H](C(=O)N[C@@H](CC(C)C)C(=O)N[C@@H](CC(C)C)C(N)=O)[C@H](C)O | > 256 | > 300 | 128 (≈ 148 µg/mL) | > 25 | > 256 | 64 (≈ 73.8 µg/mL) | 
7 | CC[C@H](C)[C@H](NC(=O)[C@H](CCCNC(=N)N)NC(=O)[C@H](CCCCN)NC(=O)[C@H](CC(C)C)NC(=O)[C@H](CC(C)C)NC(=O)CN)C(=O)N[C@@H](CCCCN)C(=O)N[C@H](C(=O)N[C@H](CC(C)C)C(=O)N[C@H](CC(C)C)C(N)=O)[C@@H](C)O | 128 (≈ 148 µg/mL) | > 300 | 8 (≈ 9.23 µg/mL) | 256 (≈ 295 µg/mL) | 64 (≈ 73.8 µg/mL) | 8 (≈ 9.23 µg/mL) | 
8 | CC[C@H](C)[C@H](NC(=O)[C@H](CCCNC(=N)N)NC(=O)[C@H](CCCCN)NC(=O)[C@@H](CC(C)C)NC(=O)[C@H](CC(C)C)NC(=O)CN)C(=O)N[C@@H](CCCCN)C(=O)N[C@H](C(=O)N[C@H](CC(C)C)C(=O)N[C@H](CC(C)C)C(N)=O)[C@@H](C)O | 64 (≈ 73.8 µg/mL) | > 300 | 8 (≈ 9.23 µg/mL) | 256 (≈ 295 µg/mL) | 64 (≈ 73.8 µg/mL) | 8 (≈ 9.23 µg/mL) | 
9 | CC[C@H](C)[C@H](NC(=O)[C@@H](CCCNC(=N)N)NC(=O)[C@H](CCCCN)NC(=O)[C@H](CC(C)C)NC(=O)[C@H](CC(C)C)NC(=O)CN)C(=O)N[C@H](CCCCN)C(=O)N[C@H](C(=O)N[C@@H](CC(C)C)C(=O)N[C@@H](CC(C)C)C(N)=O)[C@@H](C)O | 256 (≈ 295 µg/mL) | > 300 | 32 (≈ 36.9 µg/mL) | 256 (≈ 295 µg/mL) | > 256 | 32 (≈ 36.9 µg/mL) | 
10 | CC[C@H](C)[C@H](NC(=O)[C@H](CCCNC(=N)N)NC(=O)[C@H](CCCCN)NC(=O)[C@@H](CC(C)C)NC(=O)[C@@H](CC(C)C)NC(=O)CN)C(=O)N[C@@H](CCCCN)C(=O)N[C@H](C(=O)N[C@@H](CC(C)C)C(=O)N[C@@H](CC(C)C)C(N)=O)[C@@H](C)O | > 256 | > 300 | 8 (≈ 9.23 µg/mL) | 128 (≈ 148 µg/mL) | > 256 | 16 (≈ 18.5 µg/mL) | 
11 | CC[C@H](C)[C@H](NC(=O)[C@H](C)NC(=O)[C@H](CCCCN)NC(=O)[C@H](CC(C)C)NC(=O)[C@H](CC(C)C)NC(=O)CN)C(=O)N[C@@H](CCCCN)C(=O)N[C@H](C(=O)N[C@@H](CC(C)C)C(=O)N[C@@H](CC(C)C)C(N)=O)[C@@H](C)O (H-GLLKAIKTLL-NH2) |  |  |  |  |  |  | MIC (Escherichia coli [6]): 4.7 µM (≈ 5.02 µg/mL); HC50 [7]: 151 µM; MIC (Staphylococcus aureus [8]): 9.4 µM (≈ 10 µg/mL)
12 | CC[C@H](C)[C@H](NC(=O)[C@H](CCCNC(=N)N)NC(=O)[C@H](CCCCN)NC(=O)[C@H](CC(C)C)NC(=O)[C@H](CC(C)C)NC(=O)CN)C(=O)N[C@@H](C)C(=O)N[C@H](C(=O)N[C@@H](CC(C)C)C(=O)N[C@@H](CC(C)C)C(N)=O)[C@@H](C)O (H-GLLKRIATLL-NH2) |  |  |  |  |  |  | MIC (Escherichia coli [6]): 10.1 µM (≈ 11.1 µg/mL); HC50 [7]: 121 µM; MIC (Staphylococcus aureus [8]): 10.1 µM (≈ 11.1 µg/mL)
13 | CC[C@H](C)[C@H](NC(=O)[C@H](CCCNC(=N)N)NC(=O)[C@H](CCCCN)NC(=O)[C@H](CC(C)C)NC(=O)[C@H](CC(C)C)NC(=O)CN)C(=O)N[C@@H](CCCCN)C(=O)N[C@@H](C)C(=O)N[C@@H](CC(C)C)C(=O)N[C@@H](CC(C)C)C(N)=O (H-GLLKRIKALL-NH2) |  |  |  |  |  |  | MIC (Escherichia coli [6]): 14.3 µM (≈ 16.1 µg/mL); HC50 [7]: 86.5 µM; MIC (Staphylococcus aureus [8]): 7.1 µM (≈ 7.98 µg/mL)
14 | CC[C@H](C)[C@H](NC(=O)[C@H](CCCNC(=N)N)NC(=O)[C@H](CCCCN)NC(=O)[C@H](CC(C)C)NC(=O)[C@H](CC(C)C)NC(=O)CN)C(=O)N[C@@H](CCCCN)C(=O)N[C@H](C(=O)N[C@@H](C)C(=O)N[C@@H](CC(C)C)C(N)=O)[C@@H](C)O (H-GLLKRIKTAL-NH2) |  |  |  |  |  |  | MIC (Escherichia coli [6]): 44.1 µM (≈ 49 µg/mL); MIC (Staphylococcus aureus [8]): 27.9 µM (≈ 31 µg/mL)
15 | CC[C@H](C)[C@H](NC(=O)[C@H](CCCNC(=N)N)NC(=O)[C@H](CCCCN)NC(=O)[C@H](CC(C)C)NC(=O)[C@H](CC(C)C)NC(=O)CN)C(=O)N[C@@H](CCCCN)C(=O)N[C@H](C(=O)N[C@@H](CC(C)C)C(=O)NCCC(N)=O)[C@@H](C)O (H-GLLKRIKTL[βAla]-NH2) |  |  |  |  |  |  | MIC (Acinetobacter baumannii): > 128 µM; MIC (Pseudomonas aeruginosa [9]): > 128 µM; MIC (Escherichia coli [10]): > 128 µM; MIC (Klebsiella pneumoniae [11]): > 128 µM; HC10 (Erythrocyte [12]): > 256 µM; MIC [13]: > 128 µM; MIC (Staphylococcus aureus [14]): > 128 µM
16 | CC[C@H](C)[C@H](NC(=O)[C@H](CCCNC(=N)N)NC(=O)[C@H](CCCCN)NC(=O)[C@H](CC(C)C)NC(=O)[C@H](CC(C)C)NC(=O)CN)C(=O)N[C@@H](CCCCN)C(=O)N[C@H](C(=O)NCCC(=O)N[C@@H](CC(C)C)C(N)=O)[C@@H](C)O (H-GLLKRIKT[βAla]L-NH2) |  |  |  |  |  |  | MIC (Acinetobacter baumannii): > 128 µM; MIC (Pseudomonas aeruginosa [9]): > 128 µM; MIC (Escherichia coli [10]): > 128 µM; MIC (Klebsiella pneumoniae [11]): > 128 µM; HC10 (Erythrocyte [12]): > 256 µM; MIC [13]: > 128 µM; MIC (Staphylococcus aureus [14]): > 128 µM
17 | CC[C@H](C)[C@H](NC(=O)[C@H](CCCNC(=N)N)NC(=O)[C@H](CCCCN)NC(=O)[C@H](CC(C)C)NC(=O)[C@H](CC(C)C)NC(=O)CN)C(=O)N[C@@H](CCCCN)C(=O)NCCC(=O)N[C@@H](CC(C)C)C(=O)N[C@@H](CC(C)C)C(N)=O (H-GLLKRIK[βAla]LL-NH2) |  |  |  |  |  |  | MIC (Acinetobacter baumannii): > 128 µM; MIC (Pseudomonas aeruginosa [9]): 4 µM (≈ 4.49 µg/mL); MIC (Escherichia coli [10]): 32 µM (≈ 36 µg/mL); MIC (Klebsiella pneumoniae [11]): 128 µM (≈ 144 µg/mL); HC10 (Erythrocyte [12]): > 256 µM; MIC [13]: 16 µM (≈ 18 µg/mL); MIC (Staphylococcus aureus [14]): 128 µM (≈ 144 µg/mL)
